Biological target: T1, Neuropeptide Y receptor type 2 (Oryctolagus cuniculus, UniProt B6VRS5)
T1 sequence (B6VRS5 whole entry): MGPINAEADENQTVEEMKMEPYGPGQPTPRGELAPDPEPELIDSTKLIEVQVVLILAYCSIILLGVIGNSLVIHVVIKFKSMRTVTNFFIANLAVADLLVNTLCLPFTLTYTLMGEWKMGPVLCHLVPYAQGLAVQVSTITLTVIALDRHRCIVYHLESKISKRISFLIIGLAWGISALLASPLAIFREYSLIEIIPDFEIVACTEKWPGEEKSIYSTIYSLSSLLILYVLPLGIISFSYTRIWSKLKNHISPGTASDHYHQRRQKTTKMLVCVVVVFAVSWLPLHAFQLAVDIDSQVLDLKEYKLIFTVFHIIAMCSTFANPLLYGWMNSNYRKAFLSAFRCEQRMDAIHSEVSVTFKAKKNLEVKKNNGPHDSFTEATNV

Ki: 340 nM
Compound: CC[C@H](C)[C@H](NC(=O)[C@H](Cc1ccc(O)cc1)NC(=O)[C@H](CCCNC(=N)N)NC(=O)[C@H](CCCNC(=N)N)NC(=O)[C@H](CC(C)C)NC(=O)[C@H](CC(=O)O)NC(=O)[C@H](C)NC(=O)[C@H](C)NC(=O)[C@H](Cc1ccc(O)cc1)NC(=O)[C@H](CCC(N)=O)NC(=O)[C@H](C)NC(=O)[C@H](CCSC)NC(=O)[C@H](CCC(N)=O)NC(=O)[C@H](CCC(=O)O)NC(=O)[C@@H]1CCCN1C(=O)[C@@H](NC(=O)[C@H](C)NC(=O)[C@H](CC(N)=O)NC(=O)[C@H](CC(=O)O)NC(=O)CNC(=O)[C@@H]1CCCN1C(=O)[C@H](Cc1ccc(O)cc1)NC(=O)[C@@H](NC(=O)[C@@H]1CCCN1C(=O)[C@H](CCC(=O)O)NC(=O)[C@H](CC(C)C)NC(=O)[C@@H]1CCCN1C(=O)[C@H](C)N)C(C)C)[C@@H](C)O)C(=O)N[C@@H](CC(N)=O)C(=O)N[C@@H](CCSC)C(=O)N[C@@H](CC(C)C)C(=O)N[C@H](C(=O)N[C@@H](CCCNC(=N)N)C(=O)N1CCC[C@H]1C(=O)N[C@@H](CCCNC(=N)N)C(=O)N[C@@H](Cc1ccc(O)cc1)C(N)=O)[C@@H](C)O [CAS_59763-91-6]

Reference: BindingDB's records for doi:10.1074/jbc.271.44.27217 (Yamanouchi Pharmaceutical, 1996)
